# Reference: patent publication US20240148713A1 (INDUSTRY-ACADEMIC COOPERATION FOUNDATION, YONSEI UNIVERSITY, priority 2021, published 2024)
# Key:
# HS746T [1] = assay: Cell viability (CCK-8), treatment alone, Example 1; assay type: cell-based, human; details: HS746T stem-like cell line, different concentrations, 48 hours, FIG. 1
# Description: (§1) In order to evaluate the ability to inhibit the growth or metastasis of cancer cell lines or cancer stem cell lines in Examples of the present invention, the present inventors obtained the cell lines MKN1 and HS746T having human gastric cancer stem cell characteristics, and the human gastric cancer cell lines SNU601, YCC7 and NCIN87, from the American Type Culture Collection (ATCC) and the Korean Cell Line Bank (KCRB). The cell lines were cultured in different culture media under different culture conditions according to the ATCC or KCRB guides. The MKN1, SNU601, and NCIN87 cell lines were cultured in RPMI1640 media containing 10% fetal bovine serum (FBS), 2 mM L-glutamine, 100 U/ml penicillin and 100 μg/ml streptomycin, and the HS746T and YCC7 cell lines were cultured in DMEM media containing 10% FBS, 2 mM L-glutamine, 100 U/ml penicillin and 100 μg/ml streptomycin. All the cell lines were cultured at 37° C. under 5% CO2, and mycoplasma contamination tests were performed.
# (§2) The cell lines cultured in the Preparation Example were seeded into well plates at a density of 1×10^4 cells per well, and cultured overnight at 37° C. under 5% CO2. Next, each of the gastric cancer stem-like cell lines HS746T and MKN1 and the gastric cancer cell lines YCC7 and NCIN87 was treated with different concentrations of each of the anticancer drug cisplatin (CDDP), which is currently widely used in the treatment of gastric cancer patients, and the MRTF A inhibitor CCG-232601 compound, and after 48 hours, the number of cells was counted and the results are shown in FIG. 1. 100 μL of each cell culture and 10 μL of reaction buffer (CCK) were mixed together, placed in a 96-well plate, incubated for 1 hour at room temperature, and then measured for absorbance at a wavelength of 450 nm using a spectrophotometer (Synergy HTX Multi-Reader, BioTek, Winooski, VT, USA). At the same time, the number of cells in each sample was counted using a cell viability assay kit (Cell Counting Kit-8), and the counted value was expressed relative to the cell number of the negative control group so that the same cell number in each cell could be compared with the cell number of the negative control group. The experimental results are shown as the mean values of the repeated experiments.
# MKN1 [2] = assay: Cell viability (CCK-8), treatment alone, Example 1; assay type: cell-based, human; details: MKN1 stem-like cell line, different concentrations, 48 hours, FIG. 1
# Description: as §1, §2
# NCIN87 = assay: Cell viability (CCK-8), treatment alone, Example 1; assay type: cell-based, human; details: NCIN87 gastric cancer cell line, different concentrations, 48 hours, FIG. 1
# Description: as §1, §2
# YCC7 = assay: Cell viability (CCK-8), treatment alone, Example 1; assay type: cell-based, human; details: YCC7 gastric cancer cell line, different concentrations, 48 hours, FIG. 1
# Description: as §1, §2
# HS746T [3] = assay: Oxygen consumption rate (OCR) and extracellular acidification rate (ECAR), extracellular flux analyzer; assay type: cell-based, human
# Description: (§3) In particular, in order to confirm that the CCG-232601 compound has an excellent inhibitory effect against the growth of cancer stem cells, the oxygen consumption rate (OCR) and extracellular acidification rate (ECAR) of the stern-like cell lines HS746T and MKN1 having high resistance to metabolic stress were measured and the results are FIG. 2. More specifically, each of the cell lines was inoculated at a confluency of 70 to 80% in Seahorse normal culture medium, and oxygen consumption rate (OCR, pmol/min/μg protein) and extracellular acidification rate (ECAR, mpH/min/μg protein) were analyzed using an XF96 or XFp extracellular flux analyzer (Agilent) to determine mitochondrial oxidation and glycolysis levels. Mitochondrial oxidation ability of the cells pretreated for 1 hour with or without 10 mM β-HB (Sigma) was evaluated using the Seahorse XF Mito Stress Kit (Agilent). To overcome changes in oxidation and glycolysis processes upon treatment with CCG-232601, the cells were pretreated overnight with vehicle or the inhibitor, and finally 10 mM β-hydroxybutyrate was added upon the first injection.
# MKN1 [4] = assay: as above; assay type: cell-based, human
# Description: as §3
# HS746T [5] = assay: Transwell invasion assay; assay type: cell-based, human; details: 10 μg/ml, 12 hours, matrigel transwell, FIG. 3
# Description: (§4) Transwell invasion assay was performed with or without CCG-232601 treatment. Invasion ability was measured using a 6.5-mm transwell with an 8.0 μm-pore polycarbonate membrane insert (Corning) after coating with matrigel (Corning) diluted with serum-free medium to 0.67 μg/μl. Then, 2×10^4 cells per well were suspended in 200 μl of serum-free medium with vehicle or 10 μg/ml CCG-232601, and 1,000 μl of culture medium containing 10% FBS was added to the lower chamber. After 12 hours, the transferred cells were stained with 0.2% crystal violet and observed under an optical microscope. The average number of cells penetrating the membrane was counted with ImageJ (NIH) in three randomly selected high-power fields and two independent experiments, and the results are shown in FIG. 3.
# MKN1 [6] = assay: Transwell invasion assay; assay type: cell-based, human; details: MKN1, 10 μg/ml, 12 hours, matrigel transwell, FIG. 3
# Description: as §4
# MKN1 cell line = assay: CCK-8 assay, CCG-232601 and cisplatin alone or in combination; assay type: cell-based, human; details: FIG. 6
# Description: Accordingly, in order to evaluate the effect of co-administration of the compound CCG-232601, the survival and growth inhibitory effects upon administration of cisplatin (CDDP) and CCG-232601 alone or in combination to the MKN1 cell line were evaluated using a cell viability assay kit (Cell Counting Kit-8; CCK-8). Unlike administration alone, to evaluate the effect of co-administration, 5 μg/ml CCG-232601 was first administered to the MKN1 cell line, and 24 hours after administration of CCG-232601, 5 μM cisplatin (CDDP) was administered to the cell line, and 24 hours after administration of CDDP, CCK-8 assay was performed using a cell viability assay kit.
# HS746T cell line [7] = assay: CCK-8 assay, CCG-232601 and oxaliplatin alone or in combination; assay type: cell-based, human
# Description: In order to examine whether the co-administration of the compound CCG-232601 is also effective in improving drug sensitivity to other platinum-based anticancer drugs of the same family as cisplatin, the survival and growth inhibitory effects upon administration of CCG-232601 and oxaliplatin alone or in combination to the HS746T cell line were evaluated using a cell viability assay kit (Cell Counting Kit-8; CCK-8). Unlike administration alone, to evaluate the effect of co-administration, 5 μg/ml CCG-232601 was first administered to the HS746T cell line, and 24 hours after administration of CCG-232601, 24 μg/ml oxaliplatin was administered to the cell line, and 24 hours after administration of oxaliplatin, CCK-8 assay was performed using a cell viability assay kit.
# HS746T cell line [8] = assay: CCK-8 assay, MRTF A inhibitor and cisplatin alone or in combination; assay type: cell-based, human; details: 5 μg/ml inhibitor, after 24 hours 5 μM cisplatin, CCK-8 24 hours later, FIG. 8
# Description: In the same manner as described above, 5 μg/ml CCG-232601, CCG-203971 or CCG-222740 was first administered to the HS746T cell line, and after 24 hours, 5 μM cisplatin (CDDP) was administered to the cell line, and 24 hours after administration of CDDP, a CCK-8 assay was performed using a cell viability assay kit.
# [9] = tested on: bleomycin-induced dermal fibrosis; details: administered orally to mice; cited from earlier work
# [10] = tested on: human colonic myofibroblasts; details: cited from earlier work
# [11] = tested on: murine model of skin injury; details: cited from earlier work
# [12] = tested on: lung fibrosis lung fibroblasts; details: cited from earlier work
# HS746T [13] = assay: Drug sensitivity upon treatment with cisplatin (CDDP); assay type: cell-based, human
# Description: (§5) Drug sensitivity upon treatment with cisplatin (CDDP) was measured in the gastric cancer cell lines SNU601 and NCIN87 and the cell lines HS746T and MKN1 having gastric cancer stem cell-like characteristics, and the results are shown in FIG. 3.
# MKN1 [14] = assay: as above; assay type: cell-based, human
# Description: as §5
# [15] = tested on: alpha smooth muscle actin protein; details: cited from earlier work
# [16] = tested on: preclinical fibrosis model; details: cited from earlier work
smiles,measurement,setting,value
"O=C(Nc1ccc(Cl)cc1)C1CN(C(=O)c2cccc(-c3ccncc3)c2)CC(F)(F)C1 (centres unmarked) [CCG-232601, N-(4-chlorophenyl)-5,5-difluoro-1-(3-(pyridin-4-yl)benzoyl)piperidine-3-carboxamide]",antitumor effect (cell number relative to negative control),HS746T [1],exhibited antitumor effects
same,antitumor effect (cell number relative to negative control),MKN1 [2],exhibited antitumor effects
same,antitumor effect (cell number relative to negative control),NCIN87,exhibited antitumor effects
same,antitumor effect (cell number relative to negative control),YCC7,exhibited antitumor effects
same,susceptibility to glucose deprivation,HS746T [3]; conclusion from OCR/ECAR results,greatly increased the susceptibility
same,glycolytic ECAR versus OCR (mitochondrial respiration),"HS746T [3]; pretreated overnight with inhibitor, FIG. 2",ECAR was higher than the OCR
same,susceptibility to glucose deprivation,"MKN1 [4]; MKN1, conclusion from OCR/ECAR results",greatly increased the susceptibility
same,glycolytic ECAR versus OCR (mitochondrial respiration),"MKN1 [4]; MKN1, pretreated overnight with inhibitor, FIG. 2",ECAR was higher than the OCR
same,invasion and metastasis (cells penetrating the membrane),HS746T [5],reduced the invasion and metastasis
same,invasion and metastasis (cells penetrating the membrane),MKN1 [6],reduced the invasion and metastasis
same,reduction of cell viability,"MKN1 cell line; MKN1, administered alone, compared to negative control group and cisplatin-alone group",20%
same,cytotoxicity at 5 µg/mL,"HS746T cell line [7]; Homo sapiens, 5 μg/ml CCG-232601, after 24 hours 24 μg/ml oxaliplatin, CCK-8 24 hours later, FIG. 7, read-out: reduction of cell viability compared to oxaliplatin alone",≥ 20%
same,"growth of the cancer stem-like cells, administered alone","HS746T cell line [7]; administered alone, FIG. 7",reduced the growth
same,drug sensitivity to cisplatin in combination versus cisplatin alone,HS746T cell line [8],drug sensitivity was improved
same,development of bleomycin-induced dermal fibrosis,[9],suppress the development
"O=C(Nc1ccc(Cl)cc1)C1CCCN(C(=O)c2cccc(-c3ccco3)c2)C1 (centres unmarked) [CCG-203971, N-(4-chlorophenyl)-1-(3-(furan-2-yl)benzoyl)piperidine-3-carboxamide]",drug sensitivity to cisplatin in combination versus cisplatin alone,HS746T cell line [8],drug sensitivity was improved
same,matrix stiffness and TGF-β-mediated fibrogenesis,[10],represses
same,antifibrotic activity,[11],shows antifibrotic activity
same,antifibrotic activity,[12],shows antifibrotic activity
N.N.[Cl][Pt][Cl] [cisplatin],antitumor effect (cell number relative to negative control),HS746T [1],exhibited significantly improved antitumor effects
same,antitumor effect (cell number relative to negative control),MKN1 [2],exhibited significantly improved antitumor effects
same,drug sensitivity lower than that of the cancer cell lines,"HS746T [13]; HS746T versus SNU601 and NCIN87, FIG. 4",20 to 40%
same,resistance of the cell line to cisplatin,"HS746T [13]; HS746T, FIG. 4",showed resistance
same,resistance of the cell line to cisplatin,"MKN1 [14]; MKN1, FIG. 4",showed resistance
same,drug sensitivity lower than that of the cancer cell lines,"MKN1 [14]; MKN1 versus SNU601 and NCIN87, FIG. 4",20 to 40%
same,"effect on cell viability, administered alone","MKN1 cell line; MKN1, cisplatin alone",drug resistance
"O=C(Nc1ccc(Cl)cc1)C1CN(C(=O)c2cccc(-c3ccco3)c2)CC(F)(F)C1 (centres unmarked) [CCG-222740, N-(4-chlorophenyl)-5,5-difluoro-1-(3-(furan-2-yl)benzoyl)piperidine-3-carboxamide]",drug sensitivity to cisplatin in combination versus cisplatin alone,HS746T cell line [8],drug sensitivity was improved
same,expression of alpha smooth muscle actin protein,[15],prevent the expression
same,scar tissue formation,[16],effectively prevent scar tissue formation
